Measured values as given in ChEMBL document CHEMBL1133531, “Carbonic anhydrase inhibitors: perfluoroalkyl/aryl-substituted derivatives of aromatic/heterocyclic sulfonamides as topical intraocular pressure-lowering agents with prolonged duration of action” (J Med Chem, 2000).
pKi: −log10 of the molar value.

Legend:
[1] = molecular target: T1, Carbonic anhydrase 4 (Bos taurus, UniProt Q95323)
T1 sequence (Q95323 whole entry): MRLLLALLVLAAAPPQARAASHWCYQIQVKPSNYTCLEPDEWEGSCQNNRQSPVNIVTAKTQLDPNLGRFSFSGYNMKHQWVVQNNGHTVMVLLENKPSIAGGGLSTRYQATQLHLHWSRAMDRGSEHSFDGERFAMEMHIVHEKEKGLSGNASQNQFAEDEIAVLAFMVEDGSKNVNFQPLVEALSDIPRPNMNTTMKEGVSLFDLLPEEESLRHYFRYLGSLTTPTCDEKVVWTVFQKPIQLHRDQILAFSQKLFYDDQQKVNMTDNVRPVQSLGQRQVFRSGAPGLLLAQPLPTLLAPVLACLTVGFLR
Description: Inhibition of bovine carbonic anhydrase IV (CA4) from bovine lung microsomes

[2] = molecular target: Carbonic anhydrase 1 (Homo sapiens, UniProt P00915)
Chain of Carbonic anhydrase 1 (P00915 whole entry): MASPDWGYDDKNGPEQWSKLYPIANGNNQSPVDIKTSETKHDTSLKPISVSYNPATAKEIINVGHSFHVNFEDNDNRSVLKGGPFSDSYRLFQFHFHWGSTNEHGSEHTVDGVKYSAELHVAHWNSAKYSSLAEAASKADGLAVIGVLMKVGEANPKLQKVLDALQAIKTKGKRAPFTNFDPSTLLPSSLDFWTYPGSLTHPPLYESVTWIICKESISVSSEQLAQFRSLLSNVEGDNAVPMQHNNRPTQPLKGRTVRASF
Description: Inhibition of human recombinant carbonic anhydrase I (CA1)

SMILES	pKi [1]	pKi [2]
NS(=O)(=O)c1cc(S(N)(=O)=O)c(NS(=O)(=O)C(F)(F)C(F)(F)C(F)(F)C(F)(F)C(F)(F)C(F)(F)C(F)(F)C(F)(F)F)c(Cl)c1Cl	6.12	5.10
NS(=O)(=O)c1ccc(NS(=O)(=O)C(F)(F)F)cc1	4.19	3.78
NS(=O)(=O)c1cc(S(N)(=O)=O)c(NC(=O)C(F)(F)C(F)(F)C(F)(F)C(F)(F)C(F)(F)C(F)(F)C(F)(F)C(F)(F)F)c(Cl)c1Cl	6.08	5.15
NS(=O)(=O)c1ccc(NNC(=O)C(F)(F)C(F)(F)C(F)(F)C(F)(F)C(F)(F)C(F)(F)C(F)(F)C(F)(F)F)cc1	6.08	5.73
NS(=O)(=O)c1ccc(CCOS(=O)(=O)C(F)(F)C(F)(F)C(F)(F)C(F)(F)C(F)(F)C(F)(F)C(F)(F)C(F)(F)F)cc1	4.91	4.66
NS(=O)(=O)c1cccc(NC(=O)C(F)(F)C(F)(F)C(F)(F)C(F)(F)C(F)(F)C(F)(F)C(F)(F)C(F)(F)F)c1	6.03	5.80
NS(=O)(=O)c1cccc(NS(=O)(=O)c2ccc(NS(=O)(=O)C(F)(F)C(F)(F)C(F)(F)C(F)(F)C(F)(F)C(F)(F)C(F)(F)C(F)(F)F)cc2)c1	7.48	5.44
NS(=O)(=O)c1ccc(NC(=O)c2c(F)c(F)c(F)c(F)c2F)c(I)c1	5.98	5.59
NS(=O)(=O)c1ccc(NC(=O)C(F)(F)C(F)(F)C(F)(F)C(F)(F)C(F)(F)C(F)(F)C(F)(F)C(F)(F)F)c(I)c1	6.17	5.52
NS(=O)(=O)c1ccc(NS(=O)(=O)C(F)(F)C(F)(F)C(F)(F)C(F)(F)C(F)(F)C(F)(F)C(F)(F)C(F)(F)F)c(Br)c1	4.90	5.59
NS(=O)(=O)c1ccc(NS(=O)(=O)C(F)(F)C(F)(F)C(F)(F)C(F)(F)C(F)(F)C(F)(F)C(F)(F)C(F)(F)F)c(Cl)c1	4.99	5.61
NS(=O)(=O)c1ccc(NS(=O)(=O)c2ccc(NS(=O)(=O)C(F)(F)C(F)(F)C(F)(F)C(F)(F)F)cc2)cc1	7.51	5.44
NS(=O)(=O)c1ccc(NS(=O)(=O)c2ccc(NC(=O)C(F)(F)C(F)(F)C(F)(F)C(F)(F)C(F)(F)C(F)(F)C(F)(F)C(F)(F)F)cc2)cc1	7.60	5.62
NS(=O)(=O)c1ccc(Nc2ccnc(NS(=O)(=O)C(F)(F)C(F)(F)C(F)(F)C(F)(F)C(F)(F)C(F)(F)C(F)(F)C(F)(F)F)n2)cc1	7.47	5.35
Cn1nc(S(N)(=O)=O)s/c1=N/S(=O)(=O)c1ccc(NC(=O)c2c(F)c(F)c(F)c(F)c2F)cc1		5.80
NS(=O)(=O)c1ccc(NS(=O)(=O)C(F)(F)C(F)(F)C(F)(F)C(F)(F)F)c(Br)c1	6.05	4.69
NS(=O)(=O)c1ccc(NS(=O)(=O)C(F)(F)F)c(Br)c1	4.33	3.70

SMILES	pKi [1]	pKi [2]
NS(=O)(=O)c1ccc(Nc2ccnc(NC(=O)c3c(F)c(F)c(F)c(F)c3F)n2)cc1	7.21	5.11
NS(=O)(=O)c1ccc(Nc2ccnc(NC(=O)C(F)(F)C(F)(F)C(F)(F)C(F)(F)C(F)(F)C(F)(F)C(F)(F)C(F)(F)F)n2)cc1	7.44	5.36
NS(=O)(=O)c1ccc(NS(=O)(=O)c2ccc(NS(=O)(=O)C(F)(F)C(F)(F)C(F)(F)C(F)(F)C(F)(F)C(F)(F)C(F)(F)C(F)(F)F)cc2)cc1	7.54	5.52
NS(=O)(=O)c1ccc(NNS(=O)(=O)C(F)(F)C(F)(F)C(F)(F)C(F)(F)F)cc1	6.22	4.82
NS(=O)(=O)c1ccc(CCOS(=O)(=O)C(F)(F)F)cc1	4.35	4.10
NS(=O)(=O)c1ccc(Nc2ccnc(NS(=O)(=O)C(F)(F)C(F)(F)C(F)(F)C(F)(F)F)n2)cc1	7.52	5.22
NS(=O)(=O)c1ccccc1NC(=O)C(F)(F)C(F)(F)C(F)(F)C(F)(F)C(F)(F)C(F)(F)C(F)(F)C(F)(F)F	5.82	5.74
NS(=O)(=O)c1ccc(NS(=O)(=O)c2ccc(NC(=O)c3c(F)c(F)c(F)c(F)c3F)cc2)cc1	7.41	5.18
NS(=O)(=O)c1ccc(COC(=O)C(F)(F)C(F)(F)C(F)(F)C(F)(F)C(F)(F)C(F)(F)C(F)(F)C(F)(F)F)cc1	4.96	4.82
NS(=O)(=O)c1cc(S(N)(=O)=O)c(NC(=O)c2c(F)c(F)c(F)c(F)c2F)c(Cl)c1Cl	6.38	5.72
NS(=O)(=O)c1ccc(NS(=O)(=O)C(F)(F)C(F)(F)C(F)(F)C(F)(F)C(F)(F)C(F)(F)C(F)(F)C(F)(F)F)c(I)c1	4.82	5.47
NS(=O)(=O)c1ccc(Nc2ccnc(NS(=O)(=O)C(F)(F)F)n2)cc1	7.41	5.10
NS(=O)(=O)c1ccc(NS(=O)(=O)C(F)(F)C(F)(F)C(F)(F)C(F)(F)F)c(Cl)c1	6.06	4.99
NS(=O)(=O)c1ccc(NNS(=O)(=O)C(F)(F)F)cc1	4.22	3.81
NS(=O)(=O)c1ccc(COS(=O)(=O)C(F)(F)C(F)(F)C(F)(F)C(F)(F)F)cc1	4.98	4.61
NS(=O)(=O)c1ccc(NNC(=O)c2c(F)c(F)c(F)c(F)c2F)cc1	6.01	5.82

Further compounds by rising pKi [2], results first:

pKi [1]	pKi [2]	SMILES
6.26	5.82	NS(=O)(=O)c1ccc(NS(=O)(=O)c2c(F)c(F)c(F)c(F)c2F)c(Br)c1
6.26	5.85	NS(=O)(=O)c1ccc(NC(=O)C(F)(F)C(F)(F)C(F)(F)C(F)(F)C(F)(F)C(F)(F)C(F)(F)C(F)(F)F)c(F)c1
6.07	5.85	NS(=O)(=O)c1ccc(NC(=O)C(F)(F)C(F)(F)C(F)(F)C(F)(F)C(F)(F)C(F)(F)C(F)(F)C(F)(F)F)cc1
6.17	5.86	NS(=O)(=O)c1ccccc1NS(=O)(=O)c1c(F)c(F)c(F)c(F)c1F
7.48	6.00	Cn1nc(S(N)(=O)=O)s/c1=N/S(=O)(=O)c1ccc(NS(=O)(=O)C(F)(F)F)cc1
6.30	6.00	NS(=O)(=O)c1ccc(NNS(=O)(=O)c2c(F)c(F)c(F)c(F)c2F)cc1
6.12	6.00	NS(=O)(=O)c1ccc(CNC(=O)C(F)(F)C(F)(F)C(F)(F)C(F)(F)C(F)(F)C(F)(F)C(F)(F)C(F)(F)F)cc1
6.46	6.01	NS(=O)(=O)c1ccc(CNC(=O)c2c(F)c(F)c(F)c(F)c2F)cc1
6.33	6.02	NS(=O)(=O)c1ccc(CCNS(=O)(=O)C(F)(F)C(F)(F)C(F)(F)C(F)(F)C(F)(F)C(F)(F)C(F)(F)C(F)(F)F)cc1
6.28	6.02	NS(=O)(=O)c1ccc(CCNC(=O)C(F)(F)C(F)(F)C(F)(F)C(F)(F)C(F)(F)C(F)(F)C(F)(F)C(F)(F)F)cc1
7.77	6.05	NS(=O)(=O)c1nnc(NS(=O)(=O)c2ccc(NS(=O)(=O)C(F)(F)C(F)(F)C(F)(F)C(F)(F)F)cc2)s1
6.85	6.15	NS(=O)(=O)c1ccc(NS(=O)(=O)c2c(F)c(F)c(F)c(F)c2F)c(F)c1
6.82	6.26	NS(=O)(=O)c1cc(S(N)(=O)=O)c(NS(=O)(=O)C(F)(F)F)cc1Cl
7.92	6.40	NS(=O)(=O)c1nnc(NS(=O)(=O)C(F)(F)C(F)(F)C(F)(F)C(F)(F)C(F)(F)C(F)(F)C(F)(F)C(F)(F)F)s1
7.89	6.52	NS(=O)(=O)c1nnc(NC(=O)C(F)(F)C(F)(F)C(F)(F)C(F)(F)C(F)(F)C(F)(F)C(F)(F)C(F)(F)F)s1
8.10	6.52	NS(=O)(=O)c1nnc(NC(=O)CCNC(=O)C(F)(F)C(F)(F)C(F)(F)C(F)(F)C(F)(F)C(F)(F)C(F)(F)C(F)(F)F)s1
6.99	6.52	NS(=O)(=O)c1ccc(CCOS(=O)(=O)c2c(F)c(F)c(F)c(F)c2F)cc1
7.82	6.90	NS(=O)(=O)c1ccc(NS(=O)(=O)c2ccc(NS(=O)(=O)c3c(F)c(F)c(F)c(F)c3F)cc2)cc1
8.10	6.92	NS(=O)(=O)c1nc2ccc(NC(=O)c3c(F)c(F)c(F)c(F)c3F)cc2s1
8.05	6.98	NS(=O)(=O)c1nc2ccc(OC(=O)c3c(F)c(F)c(F)c(F)c3F)cc2s1
7.96	7.19	NS(=O)(=O)c1nc2ccc(OCCOC(=O)c3c(F)c(F)c(F)c(F)c3F)cc2s1
8.00	7.26	NS(=O)(=O)c1nc2ccc(OS(=O)(=O)C(F)(F)F)cc2s1
8.15	7.30	NS(=O)(=O)c1nc2ccc(OCCOS(=O)(=O)C(F)(F)F)cc2s1
8.15	7.31	NS(=O)(=O)c1nc2ccc(NS(=O)(=O)C(F)(F)C(F)(F)C(F)(F)C(F)(F)C(F)(F)C(F)(F)C(F)(F)C(F)(F)F)cc2s1
7.85	7.43	NS(=O)(=O)c1nc2ccc(OC(=O)C(F)(F)C(F)(F)C(F)(F)C(F)(F)C(F)(F)C(F)(F)C(F)(F)C(F)(F)F)cc2s1
8.15	7.54	NS(=O)(=O)c1nc2ccc(OS(=O)(=O)C(F)(F)C(F)(F)C(F)(F)C(F)(F)F)cc2s1
8.22	7.60	NS(=O)(=O)c1nc2ccc(OS(=O)(=O)c3c(F)c(F)c(F)c(F)c3F)cc2s1
8.10	7.62	NS(=O)(=O)c1nnc(NS(=O)(=O)c2ccc(NS(=O)(=O)c3c(F)c(F)c(F)c(F)c3F)cc2)s1
8.15	7.62	NS(=O)(=O)c1nc2ccc(OCCOC(=O)C(F)(F)C(F)(F)C(F)(F)C(F)(F)C(F)(F)C(F)(F)C(F)(F)C(F)(F)F)cc2s1
8.22	7.72	NS(=O)(=O)c1nc2ccc(OCCOS(=O)(=O)C(F)(F)C(F)(F)C(F)(F)C(F)(F)F)cc2s1
